Assay results taken from US10517854B2, “Dosing regiments of celgosivir for the treatment of dengue” (60 Degrees Pharmaceuticals, LLC, priority 2013, dated 2019).

Assays:
DENV1 = assay: Cell-based flaviviral immunodetection assay (CFI), DENV1; conditions: Dengue virus, BHK-21; DENV1, BHK21 cells, 48 hours
DENV4 = assay: Cell-based flaviviral immunodetection assay (CFI), DENV4; conditions: Dengue virus, BHK-21; DENV4, BHK21 cells, 48 hours
[1] = system: DENV2 in THP-1 human monocytes; assay: ADE infection of human monocytes (THP-1), plaque assay; format: cell-based; conditions: Dengue virus, THP-1, DENV2 + 4G2 antibody, 48 hours, read-out: EC50, suppression of viral replication under ADE condition
Description: The activity of celgosivir in infected human monocytes, one of the primary circulating cell types infected by dengue virus, was examined, THP-1 cells were grown in RPMI-1640 maintenance medium containing 10% fetal calf serum and 1% Penicillin-streptomycin and cultured in 37° C. incubator supplemented with 5% CO2. For ADE infection in THP-1 cells, virus (DENV2, MOI-10) was mixed with sub-neutralizing concentration of humanized 4G2 monoclonal antibody (0.05 μg/0.5 ml) and allowed to incubate on ice for 1 hr in the serum free medium, to allow immune complex formations. The immune complex was then added on to THP-1 (1×10^5) cells per well in a 24 well plate and further incubated for 2 hours at 37° C. incubator. An excess unbound immune complex was then removed by spinning cells at 1000 rpm for 5 min and then cells were supplemented with complete growth maintenance medium. For drug testing in the ADE condition, cells were mock (untreated) or celgosivir-treated for 48 hours, and finally media supernatant was collected for plaque assay analysis.

[2] = parameters: tmax: unit not given here; conditions: cited from earlier work
[3] = healthy rats, single dose 35 mg/kg PO

`CCCC(=O)O[C@H]1CN2CC[C@H](O)[C@@H]2[C@@H](O)[C@@H]1O.Cl` [Celgosivir, celgosivir] showed an EC50 (DENV1) of 650 ± 160 nM, an EC50 (DENV4) of 310 ± 120 nM and an EC50 [1] of 500 nM. For the same molecule, the “mean Cmax in the portal vein” value ([2]; 400 mg/kg celgosivir PO) was 1900 ng/mL, the AUC [2, 3] was 10.5 and the Cmax [2, 3] was 8760 ± 1150 ng/mL. The tmax [2, 3] was 0.44±0.01, the AUC 0-60 min ([2]; portal vein, 400 mg/kg celgosivir PO) was 1000 ng·h/mL and the Oral bioavailability ([2]; rat) was 93%. For the same molecule, the half-life ([2]; rat) was 2.7 h and the “oral clearance (CL/F)” value ([2]; rat) was 41.7 mL/min/kg.
